# Results: patent US20100048714A1, “Methods and Compositions Related to Inhibition of Ceramide Synthesis” (University of Utah Research Foundation, priority 2006, published 2010)
# Tests used:
# [1] = system: genes which control ceramide synthesis or degradation; test: RT-PCR of genes which control ceramide synthesis or degradation after TNFα; assay type: cell-based
# Protocol: Using RT-PCR, mRNA levels of serine palmitoyltransferase subunits (LCB1 and LCB2), acid ceramidase (AC), glucosylceramide synthase (GCS), ceramide kinase (CerK), and ceramide synthase isoforms 1-6 (Cers/Lass 1-6) were evaluated.
# The possibility that TNFαα-stimulation of lipolysis can account for the increase in ceramide by stimulating the formation of intracellular palmitoyl-CoA, which could serve as a precursor for ceramide biosynthesis, was considered. […] Instead, it appears that TNFα regulates the expression or activity of enzymes that control intracellular ceramide levels. Using RT-PCR, changes in mRNA levels of genes which control ceramide synthesis or degradation were evaluated. […] The analysis was extended to consider several ceramide synthase (CerS/LASS) isoforms, which selectively catalyze the incorporation of distinct fatty acids into the sphinganine backbone. TNFα-induced an impressive 8 and 5-fold increase in CerS1 and CerS4, respectively. These enzymes preferentially catalyze the production of ceramide species containing the stearate fatty acid.
# DES 1 = biological target: T1, DES 1 (Homo sapiens, UniProt O15121); conditions: Zheng et al. 2006; Szkudelski et al. 2006; cited from earlier work
# T1 sequence (O15121 1-323): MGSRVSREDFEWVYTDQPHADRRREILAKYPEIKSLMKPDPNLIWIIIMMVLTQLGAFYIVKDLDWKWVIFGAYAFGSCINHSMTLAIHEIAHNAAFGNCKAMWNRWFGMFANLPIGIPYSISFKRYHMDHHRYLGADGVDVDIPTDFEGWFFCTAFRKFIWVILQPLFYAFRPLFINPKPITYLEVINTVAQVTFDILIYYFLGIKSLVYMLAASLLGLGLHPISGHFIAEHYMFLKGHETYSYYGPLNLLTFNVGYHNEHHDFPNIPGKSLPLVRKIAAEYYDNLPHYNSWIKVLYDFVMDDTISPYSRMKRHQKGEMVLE
# soleus muscles = test: Isolated soleus muscle strips incubated with free fatty acids; conditions: cycloserine 1 mM or myriocin 10 μM
# Sprague-Dawley rats [2] = test: Lipid infusion with hyperinsulinemic euglycemic clamps; assay type: in vivo, rat; conditions: for Glucose, During Clamp / FFA, Before Clamp / FFA, Before Infusion / FFA, During Clamp / Glucose, Before Clamp / Glucose, Before Infusion / Insulin, Before Clamp / Insulin, Before Infusion / Insulin, During Clamp: plasma, mean ± standard error, n=4; for Glucose, During Clamp: 30 minute steady state
# From the text: The more common mechanism by which insulin resistance likely develops in the obese is through the accumulation of fats in tissues not-suited for lipid storage. Indeed, intramyocellular lipid levels inversely correlate with insulin sensitivity, and are one of the best predictors of insulin resistance in humans. To mimic this condition in rats, a 20% lard oil-heparin infusate was delivered into the bloodstream of Sprague-Dawley rats via jugular catheters. […] To assess muscle insulin sensitivity during the infusion, hyperinsulinemic-euglycemic clamps were performed on conscious, unrestrained rats during the terminal 90 minutes of the protocol. Lard oil infusion decreased insulin-stimulated glucose disposal to 47% of glycerol treated control subjects (FIG. 3C). […] Differences in the glucose infusion rats could not be accounted for by the slight differences in the glucose concentration that was achieved during the clamp nor to differences in steady-state insulin concentrations (Table 3).
# Male Sprague-Dawley rats (˜250 grams) were randomly divided into nine different groups. Glycerol, 20% lard oil, or 20% soy oil emulsions were prepared as previously described (Stein 1997) and infused at a constant rate of 5 mL/Kg/hour. To activate lipoprotein lipase, heparin (6 units/hour) was added to the triglyceride emulsions. Lipids were infused in animals treated with control injections (normal saline), myriocin (100 μg/Kg IP) or cycloserine (50 mg/Kg IP). Drugs were given 12 hours prior to lipid infusion and equivalent doses were given intravenously at the time of infusion. […] Following lipid infusion animals were deeply anesthetized with sodium pentobarbital and soleus muscles were rapidly dissected out and rapidly frozen in liquid nitrogen.
# Clamps were performed in conscious unrestrained animals using swivels and tethers (Instech, Plymouth Meeting, Pa.) to allow uninterrupted movement of the animal without disruption of infusion lines. Hyperinsulinemia was initiated by intravenous infusion of insulin (10 mU/kg/min at a flow rate of 4 μL/min).
# Sprague dawley rats [3] = test: Hyperinsulinemic euglycemic clamps of dexamethasone treated rats; assay type: in vivo, rat; conditions: plasma, 60 minute steady state; Dexamethasone-treated (Saline or Myriocin); mean ± standard error, n=4
# Sprague-Dawley rats [4] = test: Glucose tolerance test (glucose 1 g/kg IP) in dexamethasone-treated rats; assay type: in vivo, rat; conditions: dexamethasone vs vehicle
# Protocol: (§1) (A) Sprague-Dawley rats were treated with myriocin (300 μg/Kg, IP, solid bars) or saline (open bars) for two weeks prior to giving administering dexamethasone (40 μg/Kg, IP) or vehicle (5% ethanol) every 12 hours for 36 hours. Animals were euthanized by CO2 inhalation, livers were removed, and ceramide levels were assessed as described in SOM-Methods. Shown are mean ceramide levels+/−S.E.M, n=6 per group. The asterisk denotes that the sample was statistically different from vehicle-treated controls, p<0.05, student's t-test. (B) Livers were obtained as in A, above, and protein and mRNA were extracted as described in SOM-Methods. Levels of transcripts (solid bars) encoding serine palimitoyl transferase isoforms 1 and 2 (SPT1 and SPT2), dihydroceramide synthases (DCS) TL1, UOG, and TRH3, glucosylceramide synthase (GCS), and acid ceramidase (AC) transcripts were obtained by reverse-transcriptase polymerase chain reaction, normalized to β-actin. SPT2 protein levels (white bars) were detected by immunoblotting with an antibody from Cayman Chemicals (Ann Arbor, Mich.) and quantified on a Kodak Image Station 2000R (Rochester, N.Y.). Data represent the fold-change in transcript or protein in dexamethasone-treated animals relative to vehicle controls. […] (C and D) Rats were challenged with glucose (1 g/kg) given intraperitoneally (IP) following treatment with dexamethasone (squares), ethanol carrier (triangles), myriocin (open shapes), or saline (solid shapes) as in A, above. Tail vein blood (3 μl) was sampled for glucose (C)(using the Glucometer Elite from Bayer Corp., Tarrytown, N.Y.) or insulin (D) (using an Elisa kit from Linco Diagnostics, Springfield, Mo.). […] (E-G) Hyperinsulinemic euglycemic clamps were performed on animals (n=4 per group) treated as in A, above, as described in SOM-Methods. Data from animals receiving myriocin are depicted in solid bars. (E) The glucose infusion rate required to maintain normal glycemia during insulin infusion ([…]) was calculated as the average infusion rate during the 60 minute steady state. (F) Hepatic glucose output was estimated by the disappearance of [^14C] glucose from a bolus dose given during the steady state minus the glucose infusion rate. (G) Disappearance of a bolus dose of [^3H] 2-deoxyglucose from the bloodstream was used to estimate the rate of whole body glucose uptake.
# Tail vein blood (3 μl) was sampled for glucose determination (Hitachi 911 clinical chemistry analyzer, Roche, Indianapolis, Ind. or Glucometer Elite, Bayer Corp., Tarrytown, N.Y.)-30 minutes, immediately before and 15, 30, 45, 60, 90, and 120 min after glucose administration. Additionally, serum was collected and analyzed for insulin by Elisa (Linco Diagnostics, Springfield, Mo.).
# Sprague dawley rats [5] = test: Hyperinsulinemic euglycemic clamps of dexamethasone treated rats; assay type: in vivo, rat; conditions: plasma, Dexamethasone-treated (Saline or Myriocin), mean ± standard error, n=4
# Protocol: as §1
# To definitively evaluate effects on insulin sensitivity, as well as to distinguish whether the treatment protocols differentially affected glucose uptake in skeletal muscle or hepatic output by the liver, hyperinsulinemic-euglycemic clamps with D-[U-^14C] glucose and 2-deoxy-D-[2,6-^3H] glucose tracers were performed.
# Clamps were performed in conscious unrestrained animals using swivels and tethers (Instech, Plymouth Meeting, Pa.) to allow uninterrupted movement of the animal without disruption of infusion lines. Hyperinsulinemia was initiated by intravenous infusion of insulin (10 mU/kg/min at a flow rate of 4 μL/min). Blood was sampled from arterial lines in 7 minute intervals and analyzed with a Beckman Glucose analyzer II (Beckman Coulter, Fullerton, Calif.). Euglycemia was maintained by variable infusion of 20% dextrose. Steady state was achieved approximately 90 minutes after initiating hyperinsulinemia and maintained for 30 minutes. Glucose infusion rates were calculated as the average glucose infusion rate during the 30 minute steady state. Additional blood samples were taken before initiating hyperinsulinemia and at the end of the clamp for analysis of insulin and free fatty acids.
# [6] = Intralipid infusion, with or without myriocin or cycloserine
# [7] = lard oil infusion, with or without myriocin or cycloserine
compound,measurement,setting,value
TNFα,expression of glucosylceramide synthase (mRNA),[1],markedly reduced expression
same,expression of serine palmitoyltransferase subunits LCB1 and LCB2 (mRNA),[1],increased expression
same,increase in CerS1 (mRNA),[1],8 fold
same,increase in CerS4 (mRNA),[1],5 fold
CC1=C(/C=C/C(C)=C/C=C/C(C)=C/C(=O)Nc2ccc(O)cc2)C(C)(C)CCC1 [fenretinide],inhibition of DES 1,DES 1,inhibit DES 1
Oc1ccc(C=Cc2cc(O)cc(O)c2)cc1 [resveratrol],inhibition of DES 1,DES 1,inhibit DES 1
N[C@@H]1CON=C1O [L-cycloserine],linoleate effects on 2-DOG uptake,soleus muscles; 1 mM linoleate,did not alter linoleate effects
same,linoleate effects on DAG accumulation,soleus muscles; 1 mM linoleate,did not alter linoleate effects
same,DAG in palmitate-treated muscles,soleus muscles; 1 mM palmitate,without affecting DAG
same,palmitate effect on insulin-stimulated 2-deoxyglucose uptake,soleus muscles; 1 mM palmitate,completely negated the antagonistic effects of palmitate
same,palmitate-induced ceramide accumulation,soleus muscles; 1 mM palmitate,prevented palmitate-induced ceramide accumulation
same,insulin-stimulated glucose disposal / insulin resistance,Sprague-Dawley rats [2]; [6],Neither myriocin nor cycloserine prevented
same,muscle DAG levels,Sprague-Dawley rats [2]; [6],Neither myriocin nor cycloserine prevented
same,ceramide in skeletal muscle,Sprague-Dawley rats [2]; [7],blocked ceramide synthesis
same,diacylglycerol (DAG) in muscle,Sprague-Dawley rats [2]; [7],Neither myriocin nor cycloserine reduced DAG
same,glucose utilization in clamp,Sprague-Dawley rats [2]; lard-infused animals,restored glucose utilization
same,"Glucose, During Clamp",Sprague-Dawley rats [2]; Lipid: Glycerol,111.0 ± 3.0 mg/dL
same,"Glucose, During Clamp",Sprague-Dawley rats [2]; Lipid: Lard oil (PBS or drug),106.6 ± 2.6 mg/dL
same,"Glucose, During Clamp",Sprague-Dawley rats [2]; Lipid: Soy oil (PBS or drug),106.2 ± 0.44 mg/dL
same,"FFA, Before Clamp",Sprague-Dawley rats [2]; Lipid: Glycerol,0.489 ± 0.10 mM
same,"FFA, Before Infusion",Sprague-Dawley rats [2]; Lipid: Glycerol,0.562 ± 0.10 mM
same,"FFA, During Clamp",Sprague-Dawley rats [2]; Lipid: Glycerol,0.501 ± 0.11 mM
same,"Glucose, Before Clamp",Sprague-Dawley rats [2]; Lipid: Glycerol,113.0 ± 3.2 mg/dL
same,"Glucose, Before Infusion",Sprague-Dawley rats [2]; Lipid: Glycerol,104.0 ± 13.1 mg/dL
same,"Insulin, Before Clamp",Sprague-Dawley rats [2]; Lipid: Glycerol,9.19 ± 0.20 ng/mL
same,"Insulin, Before Infusion",Sprague-Dawley rats [2]; Lipid: Glycerol,0.659 ± 0.11 ng/mL
same,"Insulin, During Clamp",Sprague-Dawley rats [2]; Lipid: Glycerol,12.08 ± 0.03 ng/mL
same,"FFA, Before Clamp",Sprague-Dawley rats [2]; Lipid: Lard oil (PBS or drug),1.53 ± 0.19 mM
same,"FFA, Before Infusion",Sprague-Dawley rats [2]; Lipid: Lard oil (PBS or drug),0.672 ± 0.14 mM
same,"FFA, During Clamp",Sprague-Dawley rats [2]; Lipid: Lard oil (PBS or drug),2.12 ± 0.89 mM
same,"Glucose, Before Clamp",Sprague-Dawley rats [2]; Lipid: Lard oil (PBS or drug),101.6 ± 7.1 mg/dL
same,"Glucose, Before Infusion",Sprague-Dawley rats [2]; Lipid: Lard oil (PBS or drug),100.6 ± 6.4 mg/dL
same,"Insulin, Before Clamp",Sprague-Dawley rats [2]; Lipid: Lard oil (PBS or drug),2.18 ± 0.76 ng/mL
same,"Insulin, Before Infusion",Sprague-Dawley rats [2]; Lipid: Lard oil (PBS or drug),0.793 ± 0.15 ng/mL
same,"Insulin, During Clamp",Sprague-Dawley rats [2]; Lipid: Lard oil (PBS or drug),16.27 ± 2.69 ng/mL
same,"FFA, Before Clamp",Sprague-Dawley rats [2]; Lipid: Soy oil (PBS or drug),1.51 ± 0.23 mM
same,"FFA, Before Infusion",Sprague-Dawley rats [2]; Lipid: Soy oil (PBS or drug),1.02 ± 0.32 mM
same,"FFA, During Clamp",Sprague-Dawley rats [2]; Lipid: Soy oil (PBS or drug),2.10 ± 0.77 mM
same,"Glucose, Before Clamp",Sprague-Dawley rats [2]; Lipid: Soy oil (PBS or drug),124.0 ± 10.8 mg/dL
same,"Glucose, Before Infusion",Sprague-Dawley rats [2]; Lipid: Soy oil (PBS or drug),102.3 ± 7.1 mg/dL
same,"Insulin, Before Clamp",Sprague-Dawley rats [2]; Lipid: Soy oil (PBS or drug),3.13 ± 1.0 ng/mL
same,"Insulin, Before Infusion",Sprague-Dawley rats [2]; Lipid: Soy oil (PBS or drug),1.12 ± 0.17 ng/mL
same,"Insulin, During Clamp",Sprague-Dawley rats [2]; Lipid: Soy oil (PBS or drug),14.38 ± 0.67 ng/mL
C[C@@H]1C[C@H]2[C@@H]3CCC4=CC(=O)C=C[C@]4(C)[C@@]3(F)[C@@H](O)C[C@]2(C)[C@@]1(O)C(=O)CO [Dexamethasone],"Glucose, During Clamp",Sprague dawley rats [3],131.1 ± 5.1 mg/dL
same,increase in fasting blood glucose,Sprague-Dawley rats [4],13%
same,increase in fasting insulin concentrations,Sprague-Dawley rats [4],2.8 fold
same,"Insulin, During Clamp",Sprague dawley rats [5]; steady state,6.7 ± 1.3 ng/mL
same,FFA,Sprague dawley rats [5]; Before Clamp by layout,211 ± 38 µM
same,"Glucose, Before Clamp",Sprague dawley rats [5],139.0 ± 3.1 mg/dL
same,"Insulin, Before Clamp",Sprague dawley rats [5],4.36 ± 2.34 ng/mL
